According to patent US10710994B2, “Oxadiazole transient receptor potential channel inhibitors” (Genentech, Inc., priority 2018, dated 2020):
Where two headings read alike, the source gives them in different places.

Target: human TRPA1 channel (Homo sapiens (Human), UniProt O75762)
Assay: hTRPA1 CHO Ca2+ FLIPR Tetra assay: block of cinnamaldehyde induced calcium influx
Format: cell-based
Conditions: CHO cells expressing TRPA1, Hill coefficient fixed to 1.5
Method in brief: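 TRPA1-expressing CHO cells loaded with calcium indicator dye (1 h 37° C, then 15 min room temperature) in HBSS/20 mM HEPES pH 7.4/0.02% BSA. IC50 from fits with fixed Hill coefficient.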

[1] = read-out: hTRPA1 IC50 10 min, 10 minutes incubation with compound before cinnamaldehyde (about EC80)
[2] = read-out: hTRPA1 IC50 90 min, 90 minutes incubation with compound before cinnamaldehyde (about EC80)
[3] = hTRPA1 IC50 10 min, 10 minutes incubation with compound before cinnamaldehyde (about EC80)
[4] = hTRPA1 IC50 90 min, 90 minutes incubation with compound before cinnamaldehyde (about EC80)

Chain of human TRPA1 channel (O75762 whole entry): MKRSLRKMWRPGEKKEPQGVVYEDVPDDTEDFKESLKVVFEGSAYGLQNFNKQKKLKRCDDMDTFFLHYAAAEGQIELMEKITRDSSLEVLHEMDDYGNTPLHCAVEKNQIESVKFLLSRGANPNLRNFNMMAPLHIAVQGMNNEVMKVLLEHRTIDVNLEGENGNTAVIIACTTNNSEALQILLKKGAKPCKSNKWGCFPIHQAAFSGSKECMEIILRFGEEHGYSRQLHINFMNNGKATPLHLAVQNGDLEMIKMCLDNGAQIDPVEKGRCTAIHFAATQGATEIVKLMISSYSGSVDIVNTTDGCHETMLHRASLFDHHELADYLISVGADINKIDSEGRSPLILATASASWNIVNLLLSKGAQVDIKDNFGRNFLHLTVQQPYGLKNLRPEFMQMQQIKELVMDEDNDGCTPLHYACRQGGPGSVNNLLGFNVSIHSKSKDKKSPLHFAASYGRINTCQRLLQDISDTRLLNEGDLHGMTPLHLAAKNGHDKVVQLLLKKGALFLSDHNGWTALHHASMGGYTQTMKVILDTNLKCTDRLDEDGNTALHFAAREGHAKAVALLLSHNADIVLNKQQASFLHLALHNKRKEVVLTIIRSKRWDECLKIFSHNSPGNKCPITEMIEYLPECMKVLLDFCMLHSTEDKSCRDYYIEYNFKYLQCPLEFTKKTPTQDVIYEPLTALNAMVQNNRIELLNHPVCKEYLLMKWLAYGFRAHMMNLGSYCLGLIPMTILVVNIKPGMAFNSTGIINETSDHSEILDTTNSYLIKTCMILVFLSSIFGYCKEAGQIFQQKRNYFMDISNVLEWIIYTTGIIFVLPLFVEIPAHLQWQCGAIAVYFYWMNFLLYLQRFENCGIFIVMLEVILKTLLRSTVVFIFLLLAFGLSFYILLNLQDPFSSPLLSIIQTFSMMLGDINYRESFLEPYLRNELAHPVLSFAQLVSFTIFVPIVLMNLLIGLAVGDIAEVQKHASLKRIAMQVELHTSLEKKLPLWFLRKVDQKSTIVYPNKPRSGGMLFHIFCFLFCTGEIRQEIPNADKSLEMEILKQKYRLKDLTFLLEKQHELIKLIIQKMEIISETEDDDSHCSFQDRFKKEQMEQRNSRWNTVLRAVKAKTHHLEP

SMILES | IC50 [1] [µM] | IC50 [2] [µM] | IC50 [3] [µM] | IC50 [4] [µM]
Cc1nc2ncn(C)c2c(=O)n1Cc1nc([C@@H]2CO[C@@H](c3ccc(F)cc3)C2)no1 [Example 137, 1-((3-((3R,5R)-5-(4-fluorophenyl)tetrahydro-furan-3-yl)-1,2,4-oxadiazol-5-yl)methyl)-2,7-dimethyl-1,7-dihydro-6H-purin-6-one] | 0.0641 | 0.013 | – | –
Nc1ccc2c(=O)n(Cc3nc([C@@H]4CO[C@@H](c5ccc(Cl)cc5)C4)no3)ncc2n1 [Example 87, 2-amino-6-((3-((3R,5R)-5-(4-chlorophenyl)tetra-hydrofuran-3-yl)-1,2,4-oxadiazol-5-yl)methyl) pyrido[2,3-d]pyridazin-5(6H)-one] | 0.0105 | 0.0035 | – | –
Cn1c(=O)ccc2ncn(Cc3nc([C@@H]4CO[C@@H](c5ccc(Cl)cc5)C4)no3)c(=O)c21 [Example 46, 3-((3-((3R,5R)-5-(4-chlorophenyl)tetra-hydrofuran-3-yl)-1,2,4-oxadiazol-5-yl)methyl)-5-methyl-3,5-dihydropyrido[3,2-d] pyrimidine-4,6-dione] | 0.0145 | 0.014 | – | –
CN1CCc2c(ncn(Cc3nc([C@@H]4CO[C@@H](c5ccc(Cl)cc5)C4)no3)c2=O)C1 [Example 88, 3-((3-((3R,5R)-5-(4-chlorophenyl)tetrahydro-furan-3-yl)-1,2,4-oxadiazol-5-yl)methyl)-7-methyl-5,6,7,8-tetrahydropyrido [3,4-d]pyrimidin-4(3H)-one] | 2.72 | 0.45 | – | –
Cc1ccnc2nc(N)n(Cc3nc([C@@H]4CO[C@@H](c5ccc(Cl)cc5)C4)no3)c(=O)c12 [Example 135, 2-amino-3-((3-((3R,5R)-5-(4-chlorophenyl)tetrahydro-furan-3-yl)-1,2,4-oxadiazol-5-yl)methyl)-5-methylpyrido[2,3-d] pyrimidin-4(3H)-one] | 0.0104 | 0.0015 | – | –
Cn1cnc2ncn(Cc3nc([C@@H]4CO[C@@H](c5ccc(OC(F)F)cc5)C4)no3)c(=O)c21 [Example 19, 1-((3-((3R,5R)-5-(4-(difluoromethoxy)phenyl)tetrahydrofuran-3-yl)-1,2,4-oxadiazol-5-yl)methyl)-7-methyl-1,7-dihydro-6H-purin-6-one] | 0.15 | 0.11 | – | –
Cn1cnc2[nH]c(=O)n(Cc3nc([C@@H]4CO[C@@H](c5ccc(Cl)cc5)C4)no3)c(=O)c21 [Example 7, 1-((3-((3R, 5R)-5-(4-chlorophenyl)-tetrahydrofuran-3-yl)-1,2,4-oxadiazol-5-yl)methyl)-7-methyl-1H-purine-2,6(3H,7H)-dione] | 0.313 | 0.023 | – | –
Cc1ncn2nc(N)n(Cc3nc([C@@H]4CO[C@@H](c5ccc(Cl)cc5)C4)no3)c(=O)c12 [Example 84, 2-amino-3-((3-((3R,5R)-5-(4-chlorophenyl)tetra-hydrofuran-3-yl)-1,2,4-oxadiazol-5-yl)methyl)-5-methylimidazo[5,1-f] [1,2,4]triazin-4(3H)-one] | 0.142 | 0.0046 | – | –
Cc1cncc2ncn(Cc3nc([C@@H]4CO[C@@H](c5ccc(F)cc5)C4)no3)c(=O)c12 [Example 67, 3-((3-((3R,5R)-5-(4-fluorophenyl)tetrahydro-furan-3-yl)-1,2,4-oxadiazol-5-yl)methyl)-5-methylpyrido[3,4-d] pyrimidin-4(3H)-one] | 0.0107 | 0.0012 | – | –
COc1nccc2c(=O)n(Cc3nc([C@@H]4CO[C@@H](c5ccc(Cl)cc5)C4)no3)cnc12 [Example 52, 3-((3-((3R,5R)-5-(4-chlorophenyl)tetrahydro-furan-3-yl)-1,2,4-oxadiazol-5-yl)methyl)-8-methoxypyrido[3,4-d]pyrimidin-4(3H)-one] | 0.0951 | 0.14 | – | –
COc1ccc([C@H]2C[C@H](c3noc(Cn4cnc5ncn(C)c5c4=O)n3)CO2)cc1 [Example 65, 1-((3-((3R,5R)-5-(4-methoxyphenyl)tetrahydrofuran-3-yl)-1,2,4-oxadiazol-5-yl)methyl)-7-methyl-1,7-dihydro-6H-purin-6-one] | – | – | 0.137 | 0.067
Cn1c(NCc2ccccn2)nc2ncn(Cc3nc([C@@H]4CO[C@@H](c5ccc(Cl)cc5)C4)no3)c(=O)c21 [Example 51] | 0.0401 | 0.029 | – | –
Cn1cnc2c(C(N)=O)nn(Cc3nc([C@@H]4CO[C@@H](c5ccc(Cl)cc5)C4)no3)c(=O)c21 [Example 116, 6-((3-((3R,5R)-5-(4-chlorophenyl)tetrahydro-furan-3-yl)-1,2,4-oxadiazol-5-yl)methyl)-1-methyl-7-oxo-6,7-dihydro-1H-imidazo [4,5-d]pyridazine-4-carboxamide] | 0.0765 | 0.039 | – | –
Cn1cnc2ncn(Cc3nc([C@@H]4CO[C@@H](c5ccc(F)c(F)c5)C4)no3)c(=O)c21 [Example 18, 1-((3-((3R,5R)-5-(3,4-difluorophenyl)tetra-hydrofuran-3-yl)-1,2,4-oxadiazol-5-yl)methyl)-7-methyl-1,7-dihydro-6H-purin-6-one] | 0.173 | 0.13 | – | –
Cn1cnc2ncn(Cc3nc([C@@H]4CO[C@@H](c5ccc(Cl)c(Cl)c5)C4)no3)c(=O)c21 [Example 31, 1-((3-((3R,5R)-5-(3,4-dichlorophenyl)tetra-hydrofuran-3-yl)-1,2,4-oxadiazol-5-yl)methyl)-7-methyl-1,7-dihydro-6H-purin-6-one] | 0.0197 | 0.0078 | – | –
Cn1c(=O)oc2ncn(Cc3nc([C@@H]4CO[C@@H](c5ccc(Cl)cc5)C4)no3)c(=O)c21 (racemic) [Example 153, 1-methyl-6-[[3-[rac-(3R,5R)-5-(4-chlorophenyl)tetrahydro-furan-3-yl]-1,2,4-oxadiazol-5-yl]methyl] oxazolo[5,4-d] pyrimidine-2,7-dione] | – | – | 0.00635 | 0.0018
Cc1nc(N)n2ncn(Cc3nc([C@@H]4CO[C@@H](c5ccc(F)cc5)C4)no3)c(=O)c12 [Example 81, 7-amino-3-((3-((3R,5R)-5-(4-fluorophenyl)tetrahydro-furan-3-yl)-1,2,4-oxadiazol-5-yl)methyl)-5-methyl-imidazo[5,1-f][1,2,4]triazin-4(3H)-one] | – | 0.075 | – | –
Nc1nc2ncn(Cc3nc([C@@H]4CO[C@@H](c5ccc(Cl)cc5)C4)no3)c(=O)c2s1 [Example 129, 2-amino-6-((3-((3R,5R)-5-(4-chlorophenyl)tetrahydrofuran-3-yl)-1,2,4-oxadiazol-5-yl)methyl)thiazolo[4,5-d] pyrimidin-7(6H)-one] | 0.0151 | 0.0056 | – | –
Nc1nc(=O)c2cccnc2n1Cc1nc([C@@H]2CO[C@@H](c3ccc(F)cc3)C2)no1 [Example 130, 2-amino-1-((3-((3R,5R)-5-(4-fluorophenyl)tetra-hydrofuran-3-yl)-1,2,4-oxadiazol-5-yl)methyl) pyrido[2,3-d]pyrimidin-4(1H)-one] | 0.0833 | 0.015 | – | –
Cn1cnc2nnn(Cc3nc([C@@H]4CO[C@@H](c5ccc(Cl)cc5)C4)no3)c(=O)c21 [Example 141, 3-((3-((3R,5R)-5-(4-chlorophenyl)tetrahydro-furan-3-yl)-1,2,4-oxadiazol-5-yl)methyl)-5-methyl-3,5-dihydro-4H-imidazo[4,5-d][1,2,3] triazin-4-one] | 0.0309 | 0.011 | – | –
Nc1nn2c(C(F)(F)F)ncc2c(=O)n1Cc1nc([C@@H]2CO[C@@H](c3ccc(Cl)cc3)C2)no1 [Example 149, 2-amino-3-((3-((3R,5R)-5-(4-chlorophenyl)tetrahydro-furan-3-yl)-1,2,4-oxadiazol-5-yl)methyl)-7-(trifluoromethyl)imidazo [5,1-f][1,2,4]triazin-4(3H)-one] | 0.00448 | 0.0021 | – | –
Nc1ccc2c(=O)n(Cc3nc([C@@H]4CO[C@@H](c5ccc(F)cc5)C4)no3)cnc2n1 [Example 60, 7-amino-3-((3-((3R,5R)-5-(4-fluorophenyl)tetrahydrofuran-3-yl)-1,2,4-oxadiazol-5-yl)methyl)pyrido[2,3-d] pyrimidin-4(3H)-one] | 0.0156 | 0.012 | – | –
Nc1nc2ncccc2c(=O)n1Cc1nc([C@@H]2CO[C@@H](c3ccc(F)cc3)C2)no1 [Example 89, 2-amino-3-((3-((3R,5R)-5-(4-fluorophenyl)tetrahydrofuran-3-yl)-1,2,4-oxadiazol-5-yl)methyl) pyrido[2,3-d]pyrimidin-4(3H)-one] | 0.0187 | 0.0029 | – | –
Cn1cnc2nc(Cl)n(Cc3nc([C@@H]4CO[C@@H](c5ccc(Cl)cc5)C4)no3)c(=O)c21 [Example 120, 2-chloro-1-((3-((3R,5R)-5-(4-chlorophenyl)tetrahydro-furan-3-yl)-1,2,4-oxadiazol-5-yl)methyl)-7-methyl-1,7-dihydro-6H-purin-6-one] | 0.0294 | 0.02 | – | –
Cn1cnc2ncn(Cc3nc([C@@H]4CO[C@@H](c5ccc(OC(F)(F)F)cc5)C4)no3)c(=O)c21 [Example 21, 7-methyl-1-((3-((3R,5R)-5-(4-(trifluoromethoxy)phenyl)tetrahydro-furan-3-yl)-1,2,4-oxadiazol-5-yl)methyl)-1,7-dihydro-6H-purin-6-one] | 0.0985 | 0.067 | – | –
Cn1ncc2ncn(Cc3nc([C@@H]4CO[C@@H](c5ccc(Cl)cc5)C4)no3)c(=O)c21 [Example 151, 6-((3-((3R,5R)-5-(4-chlorophenyl)tetrahydro-furan-3-yl)-1,2,4-oxadiazol-5-yl)methyl)-1-methyl-1,6-dihydro-7H-pyrazolo[4,3-d] pyrimidin-7-one] | 0.047 | 0.032 | – | –
